“Also recorded” adds a separate entry of the source.
Legend:
Format in all cases: cell-based
[1] = test system: sections of testis from rat; test: Fluorescent staining of testis sections from rat; settings: for cells stained / affinity in testis: 15 minutes incubation, concentration not given; for concentration dependence of staining in testis: 0.05-50 μg/ml
Method: Testis tissues were obtained from a male Sprague-Dawley rat, which has been used as a control in another study. The tissues were fixed in 4% formaldehyde, imbedded in paraffin and sectioned into 4 μm thick slices before dewaxed and hydrated. Stock solutions containing 5 mg dye/ml DMSO and ethanol were made. These were diluted to 0.05, 0.5, 5, 10, and 50 μg/ml with water. At the time of the experiment, 100 μl from each solution was added to the sections, respectively. The sections were incubated for 15 minutes before the excess dye was removed by washing with water.
To se if and if so, the position of benzosuccinimidyl as a substituent alters the affinity of the dyes testis was stained with the two PASU dyes.
(§1) Fluorescence microscopic experiments were performed with a Zeizz (West Germany) microscope equipped with Plan Neofuar 40/0.9 I mm Ph3 and Plan Neofuar 25/0.8 W-Oel Ph2 objectives. A Winder M35 camera was used to obtain the microscopic images.

[2] = test system: small intestine sections from rats; test: Fluorescent staining of small intestine sections from rat
Description: Derivatives of Nile Red (FIG. 1) were synthesized and their staining of testis and small intestine sections from rats were studied. Nile Red is a member of benzophenoxazine compounds that provide a family of fluorescent dyes, which can be used, for labelling biological molecules in various applications. The phenoxazine dyes tend to have a large Stokes' shift of 80-100 nm. Nile Red is a highly fluorescent dye, which absorbs energy above 550 nm. Consequently it has mainly been used for lipid staining but also as a solvatrochromic probe to measure the solvent strength of several liquids.
as §1

[3] = test system: human cell line of fibro sarcom, HT80; test: Staining of human fibro sarcoma cells; settings: live HT80 cells, 5 μg/ml, without Triton-x
Description: The positively charged part of the molecule might bind to the anionic phosphate group of phospholipids present in the plasma membrane. Since the PASU dyes are uncharged and relatively small molecules they have the ability to pass through the outer layer of the cells. […] To answer the question of what the dyes have affinity for further investigations have to be performed. Furthermore the dyes can be used for detection of receptors of cells. […] By adding a substance that induce conformational changes of the receptor which result in that the dye fit to the receptor, or use a dye with a substituent that fit in the inactivated receptor, the targets, receptors, can be detected as small fluorescent particles, so called pits. Thus, the dyes can be used to detect receptors and follow conformational changes of the receptor, activation-inactivation of receptor.
The stock solutions of the dyes were diluted with PBS or PBS+Triton-x to 5 μg/ml when added to both fixed and unfixed mature fibro sarcoma cells, cell line HT 80. Due to lack of time only the live cells untreated with Triton-x are discussed in the result.

`CN(C)c1ccc2nc3c4cc(OCCCN5C(=O)c6ccccc6C5=O)ccc4c(=O)cc-3oc2c1` [PASU-3, 3-[3-(9-Dimethylamino-5-oxo-5H-benzo[a]phenoxazine-2-yloxy)-propyl]-isoindole-1,3-dione] was tested, and the “cells stained / affinity in testis” value [1] was “stain different cells and parts of cells; also recorded: stains stem cells but not spermatides and spermatozoa”.

`CN(C)c1ccc2nc3c4cc(OCCCN5C(=O)c6ccccc6C5=O)ccc4c(=O)cc-3oc2c1` [PASU-2, 2-[3-(9-Dimethylamino-5-oxo-5H-benzo[a]phenoxazine-2-yloxy)-propyl]-isoindole-1,3-dione] was tested, and the “concentration dependence of staining in small intestine” value ([2]; small intestine from rat) was “differs a lot with the concentration of dye”, the “cells stained / affinity in testis” value [1] was “stains spermatides and spermatozoa; also recorded: stain different cells and parts of cells; also recorded: has preferences to sperms and spermatides; also recorded: binds to spermatides and spermatozoa” and the “part of the cell stained” value [3] was “stains the cytoplasm but not the nucleus”.

`CN(C)c1ccc2nc3c4cc(OCCC[N+](C)(C)C)ccc4c(=O)cc-3oc2c1` [PATM-2, 9-Dimethylamino-2-(trimethylammonium-propoxy)-benzo[a]phenoxazin-5-one] was tested, and the “concentration dependence of staining in testis” value [1] was “no concentration dependence”, the “cells stained / affinity in testis” value [1] was “stains germ cells” and the “part of the cell stained” value [3] was “stains the plasma membranes of the cells”. The “permeability of the plasma membrane” value [3] was “does not reach into the cytoplasm of the cells”.

With `CN(C)c1ccc2nc3c4cc(OCCCN)ccc4c(=O)cc-3oc2c1` [PA-2, 2-(3-Amino-propoxy)-9-dimethylamino-benzo[a]phenoxazine-5-one] the “structures stained in small intestine” value ([2]; slices of small intestine from rat) was “all nucleuses”, the “concentration dependence of staining in testis” value [1] was “the concentration of the dye added to the tissue determined which cells that were stained” and the “cells stained / affinity in testis” value [1] was “stains stem cells selectively; also recorded: stains stem cells and spermatocytes; also recorded: high affinity for stem cells and spermatocytes; also recorded: has affinity for stem cells at low concentrations”. For the same compound, the “cells stained in testis” value ([1]; dye 0.05 μg/ml) was “only stem cells were stained”, the “cells stained in testis” value ([1]; dye 0.5 μg/ml) was “germ cells and spermatides fluoresced as well” and the “cells stained in testis” value ([1]; dye 10 μg/ml) was “spermatocytes were stained as well”.

`CN(C)c1ccc2nc3c4cc(OCCCN5C(=O)c6ccccc6C5=O)ccc4c(=O)cc-3oc2c1` [PASU-1, 1-[3-(9-Dimethylamino-5-oxo-5H-benzo[a]phenoxazine-2-yloxy)-propyl]-isoindole-1,3-dione] was tested, and the “cells stained / affinity in testis” value [1] was “does not have any affinity”.

— patent US20060286626A1, “Selective chromophores” (priority 2002, published 2006)
